We go through 1 compound from patent publication US7582638B2, “Pyrazole-isoquinoline urea derivatives as p38 kinase inhibitors” (Eli Lilly and Company, priority 2005, dated 2009).

The target of assay [1] is p38 kinase enzyme. In words: Inhibition of p38 kinase (33P-ATP, EGF peptide 661-681 substrate). In kind it is biochemical. Particulars: 40 minutes at 30° C. Here is the method: The kinase buffer solution is prepared by combining 2.5 mL 1M Tris-HCl (pH 7.5), 0.1 mL 1 M dithiothreitol, 1.0 mL 1 M magnesium chloride, and 300 μL 1% Triton X-100 and diluting to 100 mL with water. 84 mL of this kinase buffer solution is combined with 16 mL DMSO to prepare the 16% DMSO solution.
The 200 μM ATP solution is prepared by adding 102.6 μL 10 mM aqueous ATP, 25 μL ^33P-ATP, and 163.5 μL of 4 mM aqueous Epidermal Growth Factor Peptide 661-681 (Biomol, Catalog #P-121) in 5 mL kinase buffer solution.
The p38 kinase enzyme solution is prepared by dissolving 9.5 μL concentrated enzyme solution (250 ng p38 enzyme/μL kinase buffer solution) in 1536 μL kinase buffer solution.
An 80 μM solution of each test compound and control compound are prepared by dissolving 2 μL of a 10 mM stock solution of the respective compounds in dimethylsulfoxide in 248 μL of the 16% DMSO solution in a Costar 96-well microtiter plate. […]
10 μL of serially diluted compound is placed with a Beckman Multimek 96-well automated liquid handler to the assay plate. […] The plates are allowed to sit for 30 min and counted on a PE/Wallac Microbeta Trilux scintillation counter for ^33P-isotope.
The compound exemplified in Example 12 is initially tested at 10 concentrations (20 μM-1 nM using 1:3 serial dilutions). […] IC50 values are calculated (IDBS ActivityBase software) for each compound using non-linear regression.

The subject of assay [2] is pMAPKAPK2. Kind of assay: Inhibition of p-MAPKAPK2 in vitro (anisomycin-stimulated RAW 264.7 cells, ELISA). In kind it is cell-based, murine. The settings on record: Mus musculus, RAW264.7, 2 hours compound, anisomicin 100 ug/ml 30 minutes, read-out: IC50, inhibition of pMAPKAPK2 enzyme production. Here is the method: RAW 264.7 cells (a murine monocytic/macrophage line ATCC) are seeded at a density of 50,000 cells/well in 96-well plates with RPMI-1640 medium plus 10% fetal bovine serum (FBS) and allowed to settle and adhere to the bottom of the well for 48 hours. After reaching confluence, cells are treated for 2 hours with 10 serial dilutions of different compounds. A control compound is always included. After 2 hours, anisomicin (100 ug/ml) is added and cells are incubated for 30 minutes at 37° C. under a 5% CO2 atmosphere. Then, cells are fixed and treated with hydrogen peroxide in order to remove endogenous peroxidase. Finally, plates are blocked with FBS, washed, and an ELISA assay is carried out by using an antiphospho-MAPKAPK2 (Thr 334, Cell Signalling, Cat # 3041) antibody and ahP-Conjugated Secondary Antibody. This reaction is detected by using FEMTO (Pierce) which is an enhanced chemiluminiscent substrate ahP that results in rapid kinetic light output and high signal intensity. The compound exemplified in Example 12 is tested essentially as described above and is found to inhibit the pMAPKAPK2 enzyme production with an IC50 of 7 nM.
A general note: In an ELISA, binding on a coated surface is turned into a signal by an enzyme label.

Assay [3] concerns TNFα. Kind of assay: Inhibition of TNFα in vivo (LPS challenge, plasma TNFα ELISA). Particulars: female Balb/c mice, p.o., LPS 400 μg/kg IP 1 hour after compound, plasma 1.5 hours after LPS. As to the method: Compounds are administered p.o. (30, 10, 3 and 1 mg/kg) to female Balb/c mice (6 mice/dose). 1 hour following compound administration at 4 doses (P.O. at volume of 0.1 mL/mouse; vehicle: 1% NaCMC/0.25% Tween-80 in water); mice are given an IP-injection of LPS at 400 μg/kg. 1.5 hours after LPS challenging, mice are anesthetized with isoflurane and blood is taken via cardiac puncture. TNFa-levels in the plasma are determined using ELISA kit from R&D Systems and dose response ED50 is determined.
The compound exemplified in Example 12 is tested essentially as described above and suppressed TNFα in vivo with an TMED50 of 1.0 mg/kg. The Threshold Minimum Effective Dose (TMED) 50 is the dose at which greater than or equal to 50% inhibition was achieved and statistically different from control/placebo.

The subject of assay [4] is p-MAPKAPK2. In words: Anisomycin-stimulated mice ex-vivo phospho-MAPKAPK2 inhibition assay by flow cytometry. In kind it is in vivo. Particulars: female Balb/c mice, po, blood after 2 hours, ex vivo anisomycin 10 μg/ml, CD11b+Ly6G- cells. As to the method: Female Balb/c mice with 8-10 week-old age are purchased from Taconic Inc. and dosed po with 0.2 mL volume of compounds at the concentrations of 30, 10, 3, 1 mg/kg. Blood is obtained from cardiac puncture after 2 hours or other indicated time periods and collected in EDTA-containing tubes. 100 μL of blood is incubated at 37° C. for 10 minutes. Whole blood is then mixed with FITC-conjugated rat anti-mouse Ly-6G mAb (1:250) and APC-conjugated rat anti-mouse CD11b mAb (1:100) and stimulated with 10 μg/ml anisomycin. Both cell surface antigen staining and anisomycin stimulation is conducted at 37° C. for 15 min and followed up with Lyse/Fix buffer (BD Biosciences, Cat# 558049) for 10 min at room temperature. Lysed blood samples are spun down at 600×g for 8 minutes at room temperature with additional wash once by 4 mL PBS. 200 μL of diluted anti-Phospho-MAPKAPK-2 (Thr334) antibody (1:100 dilution) (Cell Signaling, Cat# 3041) and mouse BD Fc Block (1:100 dilution) (BD Biosciences, 553141) in permeabilization Medium B (Caltag, Cat# GAS002S-5) are added into blood cells and incubate at room temperature for 30 min. After the incubation, 3 mL of stain/wash buffer is added and cells are spanned down as described above with additional wash with 3 ml stain/wash buffer. […] Mean fluorescence of phosphono-MapKap-K2 staining is measured on gated CD11b+Ly6G-cells. […]
In general terms: Flow cytometry measures light scatter and fluorescence of single cells or particles in a stream.

The IC50 is the midpoint of a concentration-inhibition curve.

Consider `CS(=O)(=O)O.Cc1ccc(-n2nc(C3(C)CC3)cc2NC(=O)Nc2cnc(OC3CCN(C(=O)C4(C)CC4)CC3)c3ccccc23)cc1` [Example 12, 1-{1-[1-(1-Methyl-cyclopropanecarbonyl)-piperidin-4-yloxy]-isoquinolin-4-yl}-3-[5-(1-methyl-cyclopropyl)-2-p-tolyl-2H-pyrazol-3-yl]-urea mesylate], for which the values for the IC50 in assay [1] and in assay [2] were 0.034 µM and 0.007 µM, respectively. For the same compound, the “TMED50, suppression of TNFα in vivo” value in assay [3] amounted to 1.0 mg/kg. Besides, the “TMED50, inhibition of p-MAPKAPK2 synthesis” value in assay [4] amounted to 2.20 mg/kg.
